Here are results for 43 compounds from patent US8697694B2, “Substituted pyridine and pyrimidine derivatives and their use in treating viral infections” (priority 2008, dated 2014).

Each structure is given as a SMILES string.

This assay deals with HCV replicon cells. Briefly: Cell-based HCV replicon assay (replicon RNA level by real time PCR, Taqman). The conditions noted are these: Hepatitis C virus, 72 h, HCV replicon cells, replicon RNA level by real time PCR, harvested day 3; read-out: EC90 (μM) range. A digest of the protocol: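 HCV replicon cells treated 3 days with 10 serial 2-fold compound dilutions (top 25 μM to 1 μM; 0.5% DMSO, 10% FBS). Replicon RNA quantified by multiplex Taqman RT-PCR (NS5B amplicon, GAPDH control); EC50 and EC90 = concentrations giving ΔCT of 1 and 3.2 over baseline.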
On to `Cc1nc(N[C@@H](c2ccc(-n3cccn3)cc2)C(F)(F)F)nc(N[C@@H]2C[C@H](CO)[C@@H](O)[C@H]2O)c1-c1nc2c(C)nccc2s1` [Example 1541], for which the EC90 is less than 0.5 µM.

As to `Cc1nc(N[C@H](C)c2ccc(OC(F)(F)F)cc2)nc(N[C@@H]2CC[C@@H](O)[C@@]2(C)O)c1-c1nc2cnccc2s1` [Example 1542], the EC90 was 0.5 to 5 µM.

Consider `Cc1nc(NC2CC2)nc(N[C@@H]2C[C@H](CO)[C@@H](O)[C@H]2O)c1-c1nc2c(C)nccc2s1` [Example 1543], for which the EC90 was less than 0.5 µM.

For `Cc1nc(NC2CCC2)nc(N[C@@H]2C[C@H](CO)[C@@H](O)[C@H]2O)c1-c1nc2c(C)nccc2s1` [Example 1544], the EC90 is less than 0.5 µM.

Consider `Cc1nc(N[C@H](C)c2ccc(OC(F)F)cc2)nc(N[C@@H]2C[C@H](CO)[C@@H](O)[C@H]2O)c1-c1nc2c(C)nccc2s1` [Example 1545], for which the EC90 was less than 0.5 µM.

Turning to `Cc1nc(N[C@@H](c2ccc(OC(F)(F)F)cc2)C(F)(F)F)nc(N[C@@H]2C[C@H](CO)[C@@H](O)[C@H]2O)c1-c1nc2c(C)nccc2s1` [Example 1546], the EC90 is less than 0.5 µM.

Regarding `COCCNc1nc(C)c(-c2cc3ccccc3s2)c(N[C@@H]2C[C@H](CO)[C@@H](O)[C@H]2O)n1` [Example 1601], the EC90 is more than 5 µM.

`Cc1nc(NCc2cccs2)nc(N[C@@H]2C[C@H](CO)[C@@H](O)[C@H]2O)c1-c1cc2ccccc2s1` [Example 1602]: the EC90 is more than 5 µM.

`Cc1nc(NCC2CC2)nc(N[C@@H]2C[C@H](CO)[C@@H](O)[C@H]2O)c1-c1cc2ccccc2s1` [Example 1603]: the EC90 was more than 5 µM.

As for `Cc1nc(NCC(F)(F)F)nc(N[C@@H]2C[C@H](CO)[C@@H](O)[C@H]2O)c1-c1cc2ccccc2s1` [Example 1604], the EC90 was more than 5 µM.

Consider `Cc1nc(O)nc(N[C@@H]2C[C@H](CO)[C@@H](O)[C@H]2O)c1-c1nc2ccccc2s1` [Example 1605], for which the EC90 was more than 5 µM.

For `Cc1nc(NCC2CC2)nc(NC2CC(CO)(CO)C2)c1-c1nc2ccccc2s1` [Example 1610], the EC90 was in the range of 0.5 to 5 µM.

In the case of `Cc1cc(NCC2CC2)nc(N[C@@H]2C[C@H](CO)[C@@H](O)[C@H]2O)c1-c1nc2ccccc2s1` [Example 1616], the EC90 is more than 5 µM.

Regarding `Cc1nc(NCC2CC2)nc(NC[C@@H]2CC2(CO)CO)c1-c1nc2ccccc2s1` [Example 1617], the EC90 is more than 5 µM.

As to `Cc1nc(NCC(F)(F)F)nc(NC[C@@H]2CC2(CO)CO)c1-c1nc2ccccc2s1` [Example 1618], the EC90 was 0.5 to 5 µM.

Turning to `Cc1ccc([C@@H](C)Nc2cc(C)c(-c3nc4ccccc4s3)c(N[C@@H]3C[C@H](CO)[C@@H](O)[C@H]3O)n2)cc1` [Example 1619], the EC90 was more than 5 µM.

Turning to `Cc1nc(Nc2cccc3cccnc23)nc(N[C@@H]2C[C@H](CO)[C@@H](O)[C@H]2O)c1-c1nc2ccccc2s1` [Example 1620], the EC90 is more than 5 µM.

As for `Cc1nc(N[C@H](C)C(F)(F)F)nc(N[C@@H]2C[C@H](CO)[C@@H](O)[C@H]2O)c1-c1nc2ccccc2s1` [Example 1623], the EC90 was in the range of 0.5 to 5 µM.

In the case of `Cc1nc(NCC(F)(F)F)nc(N[C@@H]2CC[C@@H](O)C2O)c1-c1nc2ccccc2s1` (stereo partly shown) [Example 1625], the EC90 fell in the range of 0.5 to 5 µM.

In the case of `Cc1nc(NCC2CC2)nc(N[C@@H]2CC[C@@H](O)C2O)c1-c1nc2ccccc2s1` (stereo partly shown) [Example 1626], the EC90 is 0.5 to 5 µM.

As to `Cc1nc(NCC2CC2)nc(N[C@H]2[C@H](O)CC[C@@H]2O)c1-c1nc2ccccc2s1` [Example 1627], the EC90 is more than 5 µM.

In the case of `CCNC(=O)OC[C@H]1C[C@@H](Nc2nc(NCC(F)(F)F)nc(C)c2-c2nc3ccccc3s2)[C@H](O)[C@@H]1O` [Example 1628], the EC90 was less than 0.5 µM.

In the case of `CCNC(=O)OC[C@H]1C[C@@H](Nc2nc(NCC3CC3)nc(C)c2-c2nc3ccccc3s2)[C@H](O)[C@@H]1O` [Example 1629], the EC90 lay in the range of 0.5 to 5 µM.

As for `Cc1nc(NCC(F)(F)F)nc(N[C@@H]2C[C@H](C)[C@@H](O)[C@H]2O)c1-c1nc2ccccc2s1` [Example 1630], the EC90 was less than 0.5 µM.

As to `Cc1nc(NCC(F)(F)F)nc(N[C@@H]2C[C@H](C(C)O)[C@@H](O)[C@H]2O)c1-c1nc2ccccc2s1` (stereo partly shown) [Example 1632], the EC90 was less than 0.5 µM.

Take `Cc1nc(NCC(F)(F)F)nc(N[C@@H]2C[C@H](C)[C@@H](O)[C@H]2O)c1-c1nc2cnccc2s1` [Example 1633]: the EC90 was less than 0.5 µM.

As to `Cc1nc(NCC2CC2)nc(N[C@@H]2C[C@H](C)[C@@H](O)[C@H]2O)c1-c1nc2cnccc2s1` [Example 1634], the EC90 is less than 0.5 µM.

As to `Cc1nc(NCC(F)(F)F)nc(N[C@@H]2C[C@H](CC#N)[C@@H](O)[C@H]2O)c1-c1nc2ccccc2s1` [Example 1635], the EC90 is less than 0.5 µM.

Take `CC(=O)C1=C[C@@H](O)[C@H](Nc2nc(NCC(F)(F)F)nc(C)c2-c2nc3ccccc3s2)C1` [Example 1636]: the EC90 is less than 0.5 µM.

In the case of `CCC(O)[C@H]1C[C@@H](Nc2nc(NCC(F)(F)F)nc(C)c2-c2nc3ccccc3s2)[C@H](O)[C@@H]1O` (stereo partly shown) [Example 1637], the concentration for an effect of 90% (EC90) was in the range of 0.5 to 5 µM.

For `Cc1nc(NCC(F)(F)F)nc(N[C@@H]2C[C@H](C(O)C(C)C)[C@@H](O)[C@H]2O)c1-c1nc2ccccc2s1` (stereo partly shown) [Example 1638], the EC90 was in the range of 0.5 to 5 µM.

In the case of `Cc1nc(NCC(F)(F)F)nc(N[C@@H]2C[C@H](C(O)c3nccs3)[C@@H](O)[C@H]2O)c1-c1nc2ccccc2s1` (stereo partly shown) [Example 1639], the EC90 was less than 0.5 µM.

For `Cc1nc(NCC(F)(F)F)nc(N[C@@H]2C[C@H](C(C)(C)O)[C@@H](O)[C@H]2O)c1-c1nc2ccccc2s1` [Example 1640], the EC90 lay within 0.5 to 5 µM.

In the case of `Cc1nc(NCC2CC2)nc(N[C@@H]2C[C@H](C(C)O)[C@@H](O)[C@H]2O)c1-c1nc2cnccc2s1` (stereo partly shown) [Example 1641], the EC90 was less than 0.5 µM.

With `Cc1nc(N[C@H](C)C2CC2)nc(N[C@@H]2C[C@H](C(C)O)[C@@H](O)[C@H]2O)c1-c1nc2cnccc2s1` (stereo partly shown) [Example 1642], the EC90 was less than 0.5 µM.

For the compound `Cc1nc(N[C@H](C)c2ccc(OC(F)(F)F)cc2)nc(N[C@@H]2C[C@H](C(C)O)[C@@H](O)[C@H]2O)c1-c1nc2cnccc2s1` (stereo partly shown) [Example 1649], the EC90 was less than 0.5 µM.

Turning to `Cc1nc(NCC2CC2)nc(N[C@@H]2C[C@@H](C(C)O)[C@@H](O)[C@H]2O)c1-c1nc2cnccc2s1` (stereo partly shown) [Example 1650], the EC90 is less than 0.5 µM.

Turning to `Cc1nc(N[C@H](C)C2CC2)nc(N[C@@H]2C[C@@H](C(C)O)[C@@H](O)[C@H]2O)c1-c1nc2cnccc2s1` (stereo partly shown) [Example 1651], the EC90 was less than 0.5 µM.

Regarding `Cc1nc(N[C@H](C)c2ccc(OC(F)(F)F)cc2)nc(N[C@@H]2C[C@@H](C(C)O)[C@@H](O)[C@H]2O)c1-c1nc2cnccc2s1` (stereo partly shown) [Example 1652], the EC90 is less than 0.5 µM.

For the compound `Cc1nc(NCC(F)(F)F)nc(N[C@@H]2C[C@H](C(O)c3nccn3C)[C@@H](O)[C@H]2O)c1-c1nc2ccccc2s1` (stereo partly shown) [Example 1653], the EC90 is less than 0.5 µM.

As for `Cc1nc(NCC(F)(F)F)nc(N[C@@H]2C[C@H](C(O)c3ncc[nH]3)[C@@H](O)[C@H]2O)c1-c1nc2ccccc2s1` (stereo partly shown) [Example 1654], the EC90 lay in the range of 0.5 to 5 µM.

Regarding `Cc1nc(NCC2CC2)nc(N[C@@H]2CC[C@@H](O)[C@@]2(C)O)c1-c1nc2ccccc2s1` [Example 1701], the EC90 was 0.5 to 5 µM.

As for `Cc1nc(NCC(F)(F)F)nc(N[C@@H]2CC[C@@H](O)[C@@]2(C)O)c1-c1nc2ccccc2s1` [Example 1702], the EC90 is 0.5 to 5 µM.
